Patent US12691156B2, “Prebiotic compositions and method for promoting growth of Hafnia alvei by using the same” (TCI CO., LTD., priority 2022, dated 2026)

Tested on: Hafnia alvei BCRC10906
Assay: Influence of prebiotic compositions in different combinations on Hafnia alvei growth (OD600, Embodiment 4)
Type: cell-based
Conditions: for ability to promote the growth of Hafnia alvei (in words) / Relative bacterial count (%): 1 g formula in 10 mL BHI, 24 hours; for Absorbance (OD600): 10 mL BHI medium containing 1 g formula, anaerobic culture 37° C. 24 hours, control group 0.078 ± 0.039; for Relative bacterial count (%): converted from OD600, control group = 100 ± 50
Excerpt: The groups were divided into a control group and 11 experimental groups. The experimental groups included 6 single-formula experimental groups and 5 complex-formula experimental groups, namely a single-formula experimental group to a single-formula experimental group, and a complex-formula experimental group to a complex-formula experimental group. The adopted liquid medium was a brain heart infusion broth (BHI, hereinafter referred to as the BHI medium, and purchased from DifcoTM). The adopted test strains were Hafnia alvei BCRC10906 purchased from Bioresource Collection and Research Center (BCRC). Each group is shown as Table 5. Control group: No prebiotics were added, and the experimental medium was 10 ml of the BHI medium. 6 single-formula experimental groups: A single-formula experimental group containing erythritol (purchased from SWEET TOWN ENTERPRISE CORP.), a single-formula experimental group containing arabinose (purchased from […] Co., Ltd.), a single-formula experimental group containing Arabic gum (purchased from Buildmore Enterprise Co., Ltd.), a single-formula experimental group containing fructooligosaccharide (purchased from Panel Japan Co., Ltd.), a single-formula experimental group containing soybean peptide powder (purchased from FUJI OIL Co. Ltd.), and a single-formula experimental group containing the black tea ferment prepared in Embodiment 1. The experimental medium of each group was 10 ml of the BHI medium containing 1 g of prebiotics (namely, erythritol, arabinose, Arabic gum, fructooligosaccharide, soybean peptide powder, the black tea ferment prepared in Embodiment 1. The 6 single-formula experimental groups were also called single-ingredient formulas to [6]). 5 complex-formula experimental groups: A complex-formula experimental group containing the black tea ferment prepared in Embodiment 1 and the soybean peptide powder; a complex-formula experimental group containing the black tea ferment prepared in Embodiment 1, the soybean peptide powder and erythritol; a complex-formula experimental group containing the black tea ferment prepared in Embodiment 1, the soybean peptide powder and fructooligosaccharide; a complex-formula experimental group containing the black tea ferment prepared in Embodiment 1, the soybean peptide powder and arabinose; and a complex-formula experimental group containing the black tea ferment prepared in Embodiment 1, the soybean peptide powder and Arabic gum. The weight ratio of the prebiotic compositions of the complex-formula experimental groups was 1:1 or 1:1:1. The experimental medium of each group was 10 ml of the BHI medium containing 1 g of prebiotic composition (namely, a combination of 0.5 g of the black tea ferment prepared in Embodiment 1 and 0.5 g of the soybean peptide powder, a combination of about 0.33 g of the black tea ferment prepared in Embodiment 1, about 0.33 g of the soybean peptide powder and about 0.33 g of erythritol, a combination of about 0.33 g of the black tea ferment prepared in Embodiment 1, about 0.33 g of the soybean peptide powder and about 0.33 g of fructooligosaccharide , a combination of about 0.33 g of the black tea ferment prepared in Embodiment 1, about 0.33 g of the soybean peptide powder and about 0.33 g of arabinose, and a combination of about 0.33 g of the black tea ferment prepared in Embodiment 1, about 0.33 g of the soybean peptide powder and about 0.33 g of Arabic gum; and the 5 complex-formula experimental groups are also referred to as complex-ingredient formulas to [5]). [table] Firstly, 5% (v/v) of Hafnia alvei was inoculated to the BHI medium, and activated in an anaerobic operation box (5% of hydrogen, 10% of carbon dioxide and 85% of nitrogen) at 37° C. for 24 hours to obtain an experimental bacterial solution. […]

SMILES | ability to promote the growth of Hafnia alvei (in words) | Absorbance (OD600) | Absorbance (OD600) (listed as single-formula experimental group [1]) | Relative bacterial count (%) | Absorbance (OD600) (listed as single-formula experimental group [2])
OC[C@@H](O)[C@@H](O)CO [Single-formula experimental group [1], Erythritol] | promoted the growth of Hafnia alvei | 0.169 ± 0.026 | 0.169±0.026 | 217 ± 34 | 
O=C[C@@H](O)[C@H](O)[C@H](O)CO [Single-formula experimental group [2], Arabinose] | promoted the growth of Hafnia alvei | 0.176 ± 0.038 |  | 226 ± 49 | 0.176±0.038
